Measurements taken from patent publication US20250195521A1 (Revolution Medicines, Inc., priority 2020, published 2025).

Key:
[1] = tested on: K-Ras G12C (NCI-H358 cells); test: Potency assay: pERK in NCI-H358 cells; format: cell-based, human; conditions: Homo sapiens; NCI-H358 cells, 4 hours; read-out: pERK EC50 (H358 KRAS G12C)
Summary of the method: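 Cells plated the day before were exposed for 4 h at 37° C, 5% CO2 to a 10-point, 3-fold DMSO dilution series (10 mM top stock), in duplicate. Phospho-ERK was read by AlphaLISA SureFire Ultra or by In-Cell Western with DRAQ5 DNA stain, and IC50 came from a 4-parameter sigmoidal fit.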

[2] = target: KRAS G13C (Homo sapiens (Human), UniProt P01116+P62937, G13C); test: Ras-Raf disruption/FRET/MOA assay (BRAF RBD, Cyclophilin A); format: biochemical; conditions: read-out: KRAS G13C FRET IC50
Chain of KRAS G13C (P01116 other isoform, or with tags, fused parts or gaps G13C): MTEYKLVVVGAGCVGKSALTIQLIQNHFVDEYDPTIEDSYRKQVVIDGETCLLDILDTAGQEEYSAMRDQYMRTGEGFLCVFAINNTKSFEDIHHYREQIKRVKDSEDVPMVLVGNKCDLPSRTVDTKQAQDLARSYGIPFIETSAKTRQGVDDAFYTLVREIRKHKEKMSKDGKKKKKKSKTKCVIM
Chain of KRAS G13C (P62937 whole entry): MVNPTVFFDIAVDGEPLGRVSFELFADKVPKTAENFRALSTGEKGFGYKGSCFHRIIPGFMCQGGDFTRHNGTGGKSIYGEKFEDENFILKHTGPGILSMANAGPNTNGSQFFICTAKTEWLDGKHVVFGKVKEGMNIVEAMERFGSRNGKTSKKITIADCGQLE
Summary of the method: (§1)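 His6-K-Ras-GMPPNP (12.5 nM), GST-BRAF RBD (50 nM) and tagless Cyclophilin A (25 μM) were combined in 25 mM HEPES pH 7.3 with 100 mM NaCl, 5 mM MgCl2, 0.1% BSA and 0.002% Tween20, with compound as a 10-point 3-fold series from 30 μM final, then incubated 3 h at 25° C.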

[3] = target: KRAS G12S (Homo sapiens (Human), UniProt P01116+P62937, G12S); test: as above; format: biochemical; conditions: read-out: KRAS G12S FRET IC50
Chain of KRAS G12S (P01116 other isoform, or with tags, fused parts or gaps G12S): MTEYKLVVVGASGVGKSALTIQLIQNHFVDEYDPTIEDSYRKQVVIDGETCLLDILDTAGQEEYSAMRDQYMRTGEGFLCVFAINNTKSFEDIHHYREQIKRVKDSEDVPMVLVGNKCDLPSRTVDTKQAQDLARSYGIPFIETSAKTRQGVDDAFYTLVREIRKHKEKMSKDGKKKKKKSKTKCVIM
Chain of KRAS G12S (P62937 whole entry): as the sequence (P62937 whole entry) above
Summary of the method: as §1

[4] = target: KRAS G13D (Homo sapiens (Human), UniProt P01116+P62937, G13D); test: as above; format: biochemical; conditions: read-out: KRAS G13D FRET data IC50
Chain of KRAS G13D (P01116 other isoform, or with tags, fused parts or gaps G13D): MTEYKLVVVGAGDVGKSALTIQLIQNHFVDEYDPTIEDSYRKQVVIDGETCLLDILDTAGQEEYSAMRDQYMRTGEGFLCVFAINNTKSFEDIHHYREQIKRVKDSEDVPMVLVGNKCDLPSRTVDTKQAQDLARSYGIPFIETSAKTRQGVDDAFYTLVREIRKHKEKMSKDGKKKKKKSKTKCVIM
Chain of KRAS G13D (P62937 whole entry): as the sequence (P62937 whole entry) above
Summary of the method: as §1

[5] = target: KRAS WT (Homo sapiens (Human), UniProt P01116+P62937); test: as above; format: biochemical; conditions: read-out: KRAS WT FRET data IC50
Chain of KRAS WT (P01116 other isoform, or with tags, fused parts or gaps): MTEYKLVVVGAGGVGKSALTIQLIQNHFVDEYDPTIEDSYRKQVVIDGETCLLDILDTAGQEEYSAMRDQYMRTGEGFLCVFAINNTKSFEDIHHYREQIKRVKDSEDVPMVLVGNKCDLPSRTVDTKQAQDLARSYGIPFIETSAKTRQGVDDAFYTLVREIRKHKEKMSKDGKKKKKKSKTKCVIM
Chain of KRAS WT (P62937 whole entry): as the sequence (P62937 whole entry) above
Summary of the method: as §1

[6] = target: KRAS G12C (Homo sapiens (Human), UniProt P01116+P62937, G12C); test: as above; format: biochemical; conditions: read-out: KRAS G12C FRET IC50
Chain of KRAS G12C (P01116-2 other isoform, or with tags, fused parts or gaps G12C): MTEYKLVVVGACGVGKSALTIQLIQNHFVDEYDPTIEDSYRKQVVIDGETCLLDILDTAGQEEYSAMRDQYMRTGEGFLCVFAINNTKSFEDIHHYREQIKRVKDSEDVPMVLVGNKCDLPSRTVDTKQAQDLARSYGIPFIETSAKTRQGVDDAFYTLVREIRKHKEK
Chain of KRAS G12C (P62937 whole entry): as the sequence (P62937 whole entry) above
Summary of the method: as §1

[7] = target: NRAS G12C (Homo sapiens (Human), UniProt P01111+P62937, G12C); test: as above; format: biochemical; conditions: read-out: NRAS G12C FRET data IC50
Chain of NRAS G12C (P01111 whole entry G12C): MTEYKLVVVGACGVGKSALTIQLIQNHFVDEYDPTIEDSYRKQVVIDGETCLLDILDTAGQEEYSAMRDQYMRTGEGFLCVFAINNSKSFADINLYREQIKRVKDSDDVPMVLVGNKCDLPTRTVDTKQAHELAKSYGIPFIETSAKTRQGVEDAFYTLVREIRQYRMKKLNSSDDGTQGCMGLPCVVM
Chain of NRAS G12C (P62937 whole entry): as the sequence (P62937 whole entry) above
Summary of the method: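 First, 25 μM Cyclophilin A, 12.5 nM His6-Ras-GMPPNP and 50 nM GST-BRAF RBD are mixed with diluted compound at pH 7.3. Next, 3 h at 25° C. Then 10 nM anti-His Eu-W1024 plus 50 nM anti-GST allophycocyanin for 1.5 h before TR-FRET reading.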

[8] = target: KRAS G12D (Homo sapiens (Human), UniProt P01116+P62937, G12D); test: as above; format: biochemical; conditions: read-out: KRAS G12D FRET IC50
Chain of KRAS G12D (P01116 other isoform, or with tags, fused parts or gaps G12D): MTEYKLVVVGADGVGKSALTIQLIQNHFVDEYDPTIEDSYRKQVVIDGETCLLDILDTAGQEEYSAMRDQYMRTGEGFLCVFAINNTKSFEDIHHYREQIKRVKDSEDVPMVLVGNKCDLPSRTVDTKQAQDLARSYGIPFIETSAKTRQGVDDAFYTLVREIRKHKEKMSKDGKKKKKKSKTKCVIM
Chain of KRAS G12D (P62937 whole entry): as the sequence (P62937 whole entry) above
Summary of the method: as §1

[9] = target: KRAS G12V (Homo sapiens (Human), UniProt P01116+P62937, G12V); test: as above; format: biochemical; conditions: read-out: KRAS G12V FRET IC50
Chain of KRAS G12V (P01116 other isoform, or with tags, fused parts or gaps G12V): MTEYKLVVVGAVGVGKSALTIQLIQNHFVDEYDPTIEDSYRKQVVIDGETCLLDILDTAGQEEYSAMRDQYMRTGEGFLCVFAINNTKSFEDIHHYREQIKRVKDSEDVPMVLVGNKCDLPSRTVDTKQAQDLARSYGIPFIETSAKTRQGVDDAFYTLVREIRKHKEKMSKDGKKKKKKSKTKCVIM
Chain of KRAS G12V (P62937 whole entry): as the sequence (P62937 whole entry) above
Summary of the method: as §1

[10] = tested on: NCI-H358 cells (K-Ras G12C); test: CellTiter-Glo cell viability, NCI-H358; format: cell-based, human; conditions: Homo sapiens, NCI-H358, 120 h, K-Ras G12C, 5-day treatment; read-out: H358 Cell Viability IC50
Summary of the method: (§2)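 Five-day treatment of K-Ras mutant cells with directly dispensed compound; ATP-based luminescence endpoint. Percent of DMSO signal fit to four-parameter logistic curve.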

[11] = tested on: Capan-1 cells (K-Ras G12V); test: CellTiter-Glo cell viability, Capan-1; format: cell-based, human; conditions: Homo sapiens, CAPAN-1, 120 h, K-Ras G12V, 5-day treatment; read-out: Capan-1 Cell Viability IC50
Summary of the method: as §2

Row | Structure (SMILES) | EC50 [1] [nM] | IC50 [2] [nM] | IC50 [3] [nM] | IC50 [4] [nM] | IC50 [5] [nM] | IC50 [6] [nM] | IC50 [7] [nM] | IC50 [8] [nM] | IC50 [9] [nM] | IC50 [10] [nM] | IC50 [11] [nM]
1 | CCn1c(-c2cccnc2[C@H](C)OC)c2c3cc(ccc31)-c1csc(n1)C[C@H](NC(=O)[C@H](C(C)C)N(C)C(=O)N1CC(OC(F)(F)F)C1)C(=O)N1CCC[C@H](N1)C(=O)OCC(C)(C)C2 [Compound A330] | < 5000 | 100 to 1000 | 100 to 1000 | 100 to 1000 | 100 to 1000 | 10 to 100 | 10 to 100 | 1000 to 10000 | 100 to 1000 | 10 to 100 | 10 to 100
2 | CCn1c(-c2cccnc2[C@H](C)OC)c2c3cc(ccc31)-c1cc(O)cc(c1)C[C@H](NC(=O)[C@H](C(C)C)N(C)C(=O)[C@@H]1COC[C@@H]1N)C(=O)N1CCC[C@H](N1)C(=O)OCC(C)(C)C2 [Compound A418] | < 5000 | 10 to 100 | 10 to 100 | 100 to 1000 | 10 to 100 | 10 to 100 | 10 to 100 | 100 to 1000 | 100 to 1000 | 100 to 1000 | 1000 to 10000
3 | CCn1c(-c2cnccc2COC)c2c3cc(ccc31)-c1cc(O)cc(c1)C[C@H](NC(=O)[C@H](C(C)C)N(C)C(=O)[C@H]1CCCN1C)C(=O)N1CCC[C@H](N1)C(=O)OCC(C)(C)C2 [Compound A83] | < 5000 | 100 to 1000 | 100 to 1000 | 100 to 1000 | 100 to 1000 | 100 to 1000 | 100 to 1000 | 100 to 1000 | 100 to 1000 | 1000 to 10000 | 1000 to 10000
4 | CCn1c(-c2cccnc2[C@H](C)OC)c2c3cc(ccc31)-c1cc(O)cc(c1)C[C@H](NC(=O)[C@H](C(C)C)N(C)C(=O)C1CCc3ncccc3C1)C(=O)N1CCC[C@H](N1)C(=O)OCC(C)(C)C2 (stereo partly shown) [Compound A247] | < 5000 | 10 to 100 | 10 to 100 | 10 to 100 | 10 to 100 | 10 to 100 | 10 to 100 | 10 to 100 | 10 to 100 | 10 to 100 | 10 to 100
5 | CCn1c(-c2cccnc2[C@H](C)OC)c2c3cc(ccc31)-c1cc(O)cc(c1)C[C@H](NC(=O)[C@H](C(C)C)N(C)C(=O)[C@H]1CCN(C(=O)OC3CN(C)C3)C1)C(=O)N1CCC[C@H](N1)C(=O)OCC(C)(C)C2 [Compound A348] | < 5000 | 10 to 100 | 10 to 100 | 10 to 100 | 10 to 100 | 10 to 100 | 10 to 100 | 10 to 100 | 10 to 100 | 10 to 100 | 100 to 1000
6 | CCn1c(-c2cccnc2COC)c2c3cc(ccc31)-c1cc(O)cc(c1)C[C@H](NC(=O)[C@H](C(C)C)N(C)C(=O)OC1COC1)C(=O)N1CCC[C@H](N1)C(=O)OCC(C)(C)C2 [Compound A39] | < 5000 | 100 to 1000 | 100 to 1000 | 100 to 1000 | 100 to 1000 | 100 to 1000 | 100 to 1000 | 1000 to 10000 | 100 to 1000 | 100 to 1000 | 100 to 1000
7 | CCn1c(-c2cccnc2[C@H](C)OC)c2c3cc(ccc31)-c1cc(O)cc(c1)C[C@H](NC(=O)[C@H](C(C)C)N(C)C(=O)[C@H]1CCN(C(=O)[C@@]3(C)CCCN3C)C1)C(=O)N1CCC[C@H](N1)C(=O)OCC(C)(C)C2 [Compound A379] | < 5000 | 10 to 100 | 10 to 100 | 10 to 100 | 10 to 100 | 10 to 100 | 10 to 100 | 10 to 100 | 10 to 100 | 10 to 100 | 100 to 1000
8 | CCn1c(-c2cccnc2[C@H](C)OC)c2c3cc(ccc31)-c1cc(O)cc(c1)C[C@H](NC(=O)[C@H](C(C)C)N(C)C(=O)[C@H]1[C@@H](N)[C@@H]3CC[C@H]1O3)C(=O)N1CCC[C@H](N1)C(=O)OCC(C)(C)C2 [Compound A421] | < 5000 | 10 to 100 | 100 to 1000 | 100 to 1000 | 100 to 1000 | 100 to 1000 | 100 to 1000 | 100 to 1000 | 1000 to 10000 | 100 to 1000 | 1000 to 10000
9 | CCn1c(-c2cccnc2[C@H](C)OC)c2c3cc(ccc31)-c1cc(O)cc(c1)C[C@H](NC(=O)[C@H](C(C)C)N(C)C(=O)[C@H]1CCN(C(=O)OC3CC3)C1)C(=O)N1CCC[C@H](N1)C(=O)OCC(C)(C)C2 [Compound A202] | < 5000 | 10 to 100 | 10 to 100 | 10 to 100 | 10 to 100 | 10 to 100 | 10 to 100 | 100 to 1000 | 10 to 100 | 10 to 100 | 10 to 100
10 | CCn1c(-c2cccnc2[C@H](C)OC)c2c3cc(ccc31)-c1cc(O)cc(c1)C[C@H](NC(=O)[C@H](C(C)C)N(C)C(=O)C13CCC(CC1)O3)C(=O)N1CCC[C@H](N1)C(=O)OCC(C)(C)C2 [Compound A412] | < 5000 | 100 to 1000 | 100 to 1000 | 100 to 1000 | 10 to 100 | 10 to 100 | 100 to 1000 | 100 to 1000 | 100 to 1000 | 100 to 1000 | 100 to 1000
11 | CCn1c(-c2cccnc2[C@H](C)OC)c2c3cc(ccc31)-c1csc(n1)C[C@H](NC(=O)[C@H](C(C)C)N(C)C(=O)N1CC(N(C)C(C)C)C1)C(=O)N1CCC[C@H](N1)C(=O)OCC(C)(C)C2 [Compound A318] | – | 100 to 1000 | 100 to 1000 | 100 to 1000 | 100 to 1000 | 100 to 1000 | 100 to 1000 | 1000 to 10000 | 100 to 1000 | 10 to 100 | 10 to 100
12 | CCn1c(-c2cccnc2[C@H](C)OC)c2c3cc(ccc31)-c1csc(n1)C[C@H](NC(=O)[C@H](C(C)C)N(C)C(=O)N1CCOC[C@H]1C)C(=O)N1CCC[C@H](N1)C(=O)OCC(C)(C)C2 [Compound A402] | – | 100 to 1000 | 100 to 1000 | 100 to 1000 | 10 to 100 | 10 to 100 | 10 to 100 | 100 to 1000 | 100 to 1000 | 10 to 100 | 10 to 100
